Read-outs that look alike come from different tables or passages of the source.

One assay has as its target T1, human CB1R (Homo sapiens, UniProt P21554).
T1 construct: expressed in transfected cells
The experiment in a line: Competition radioligand binding assay, [3H]-CP55940, human CB1R. As for the experimental part:
CB1R competition binding experiments were carried out by employing cell membranes obtained from a stable CHO-hCB1 cell line. Cell membranes were prepared by washing the cells twice with phosphate buffered saline (PBS) and scraped from the plate in lysis buffer (5 mM Tris-HCl, 2 mM EDTA, pH = 7.4). Cell suspension was homogenized and centrifuged at 1000× g for 10 min at 4 °C. Supernatant was isolated and centrifuged at 48,000× g for 1 h at 4 °C. The membrane’s pellet was suspended in a storage buffer (50 mM Tris-HCl, pH = 7.4). The protein concentration of the cell membrane suspension was 4292 µg/mL.
Radioligand binding assays were performed in a polypropylene 96-well plate containing 20 μg of cell membranes, 1.25 nM [^3H]-CP55940 (101 Ci/mmol, 1 mCi/mL, Perkin Elmer NET1051250UC), and the compounds under study. Non-specific binding was determined in the presence of Surinabant 10 μM. The reaction mixture (Vt: 250 μL/well) was incubated at 30 °C for 60 min, 200 μL was transferred to a GF/B 96-well plate (Millipore, Madrid, Spain) and treated with binding buffer (50 mM Tris-HCl, 5 mM MgCl2, 1 mM EDTA, 0.5% BSA. pH: 7.4); afterward, it was filtered and washed four times with 250 μL wash buffer (50 mM Tris-HCl, 5 mM MgCl2, 1 mM EDTA, 0.5% BSA. pH: 7.4), before its measurement in a microplate beta scintillation counter (Microbeta Trilux, PerkinElmer, Madrid, Spain).

A further assay deals with T2, human CB2R (Homo sapiens, UniProt P34972).
T2 construct: expressed in transfected cells
T2 sequence (P34972 whole entry): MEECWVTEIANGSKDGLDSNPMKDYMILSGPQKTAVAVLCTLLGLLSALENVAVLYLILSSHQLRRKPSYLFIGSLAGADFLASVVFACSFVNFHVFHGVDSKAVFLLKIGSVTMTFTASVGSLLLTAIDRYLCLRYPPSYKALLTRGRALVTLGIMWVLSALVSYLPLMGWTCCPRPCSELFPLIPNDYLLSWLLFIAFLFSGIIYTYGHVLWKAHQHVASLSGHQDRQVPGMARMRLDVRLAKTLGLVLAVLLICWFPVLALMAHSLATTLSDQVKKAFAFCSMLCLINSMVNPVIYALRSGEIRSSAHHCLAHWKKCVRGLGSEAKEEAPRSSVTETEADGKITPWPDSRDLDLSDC
As to the kind of experiment: Competition radioligand binding assay, [3H]-CP55940, human CB2R. On the procedure:
CB2R competition binding experiments were carried out by employing cell membranes obtained from a stable HEK-hCB2 cell line. Cell membranes were prepared by washing the cells twice in PBS and scraped from the plate in PBS. Cell suspension was centrifuged at 1500× g for 3 min at 4 °C. Cell pellet was suspended in lysis buffer (15 mM Tris-HCl, 2 mM MgCl2, 0.3 mM EDTA, 1 mM EGTA, pH = 7.5), homogenized, and centrifuged at 40,000× g for 25 min at 4 °C. Pellet was suspended in lysis buffer and centrifuged at 40,000× g for 1 h at 4 °C. The membrane’s pellet was suspended in storage buffer (7.5 mM Tris-HCl, 12.5 mM MgCl2, 0.3 mM EDTA, 1 mM EGTA, 250 mM sucrose, pH = 7.5). The protein concentration of the cell membrane suspension was 4781 µg/mL.
Radioligand binding assays were performed in a polypropylene 96-well plate containing 30 μg of membranes, […] (101 Ci/mmol, 1 mCi/mL, Perkin Elmer NET1051250UC), and the compounds under study. Non-specific binding was determined in the presence of GW405833 10 μM (Sigma G1421). The reaction mixture (Vt: 250 μL/well) was incubated at 30 °C for 90 min, 200 μL was transferred to GF/C 96-well plate (Millipore, Madrid, Spain), pre-treated with 0.5% of PEI, and treated with binding buffer (50mM Tris-HCl, 5mM MgCl2, 2.5 mM EGTA, 0.1% BSA. pH: 7.4); afterward, it was filtered and washed four times with 250 μL wash buffer (50mM Tris-HCl, 5mM MgCl2, 2.5 mM EGTA, 1% BSA. pH: 7.4), before its measurement in a microplate beta scintillation counter (Microbeta Trilux, PerkinElmer, Madrid, Spain).

The target of another assay is T3, SNAP-CB2R (Homo sapiens, UniProt P34972).
T3 construct: host or cells: HEK-293 cells, transient transfection (lipofectamine 2000), living adherent cells
T3 sequence (P34972 whole entry): as above
As to the kind of experiment: Tag-lite competition binding assay with CELT-335, living cells expressing SNAP-CB2R.

Another assay concerns the target T4, SNAP-CB1R (Homo sapiens, UniProt P21554).
T4 construct: expressed in transfected cells; host or cells: HEK-293T cells, transient transfection (PEI), living cells
The experiment in a line: cell-based. It is filed as binding.

Another assay addresses hCB2R. To be noted: literature value ref 32; cited from earlier work.
For another assay, the target named is CB1 receptor. As to conditions: literature value ref 31; cited from earlier work.
Setting [1] is: 100 nM CELT-335, test compound 0-10 μM, mean ± SEM, read-out: pKi CB1 Tag-Lite Binding (CELT-335) (converted).

T1 sequence (P21554 whole entry): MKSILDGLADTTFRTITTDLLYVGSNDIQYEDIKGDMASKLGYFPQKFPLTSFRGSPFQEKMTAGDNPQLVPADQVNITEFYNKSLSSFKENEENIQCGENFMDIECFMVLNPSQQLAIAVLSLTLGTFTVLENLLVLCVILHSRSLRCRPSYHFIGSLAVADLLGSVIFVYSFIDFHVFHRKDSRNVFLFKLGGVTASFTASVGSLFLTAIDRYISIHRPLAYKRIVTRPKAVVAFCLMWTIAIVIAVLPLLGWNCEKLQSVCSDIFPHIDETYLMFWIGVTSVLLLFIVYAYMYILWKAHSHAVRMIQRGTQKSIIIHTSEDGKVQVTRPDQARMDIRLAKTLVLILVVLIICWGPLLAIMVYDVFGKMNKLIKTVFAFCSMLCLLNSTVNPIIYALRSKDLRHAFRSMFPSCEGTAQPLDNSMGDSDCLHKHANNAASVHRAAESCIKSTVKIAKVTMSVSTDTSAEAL
T4 sequence (P21554 whole entry): as above

On to `CC(C)C(NC(=O)c1cn(Cc2ccc(F)cc2)c2ccccc12)C(N)=O` (stereo not drawn) [AB-FUBICA], for which the Ki on human CB1R was 0.0036 µM; on human CB2R, 0.0288 µM; at SNAP-CB2R, 0.0363 µM.

Regarding `COC(=O)[C@@H](NC(=O)c1cn(Cc2ccc(F)cc2)c2ccccc12)C(C)C` [AMB-FUBICA], the Ki at human CB1R was 0.0479 µM; at human CB2R it was 0.02 µM; at SNAP-CB1R (setting [1]) it was 0.117 µM; on SNAP-CB2R, 0.0219 µM.

With `CCCCCn1cc(C(=O)NC23CC4CC(CC(C4)C2)C3)c(=O)c2ccccc21` [Adamantyl-quinolone], the Ki on human CB1R is 0.049 µM; on SNAP-CB1R it was 0.0794 µM. Also, the “pKi CB2 Tag-Lite Binding (CELT-335)” value at SNAP-CB2R stood at 8.29 ± 0.11. Moreover, the “pKi CB2 Radioligand Binding” value at hCB2R is 7.78 [32].

On to `COC(=O)C(NC(=O)c1cn(CC2CCCCC2)c2ccccc12)C(C)(C)C` (stereo not drawn) [MDMB-CHMICA], for which the Ki is 0.00813 µM at SNAP-CB1R (setting [1]) and 0.00234 µM at SNAP-CB2R. For the same molecule, the “pKi CB1 Radioligand Binding” value at CB1 receptor is 9.38 [31].

Regarding `Cc1c(C(=O)NCc2cccnc2)nn(-c2ccc(Cl)cc2Cl)c1-c1ccc(Cl)cc1` [MJ15], the Ki at human CB1R (displacement of specific [3H]-CP55940 binding, mean ± SEM, read-out: pKi CB1 Radioligand Binding (converted)) was 0.0631 µM; at human CB2R (displacement of specific [3H]-CP55940 binding, mean ± SEM, read-out: pKi CB2 Radioligand Binding (converted)), 0.692 µM; at SNAP-CB1R (setting [1]), 0.0363 µM; at SNAP-CB2R it was 0.324 µM.

These data come from article PMC10745346, “A Robust and Efficient FRET-Based Assay for Cannabinoid Receptor Ligands Discovery” (Molecules, 2023).
